Assay results taken from patent US4939133A, “N-substituted-2-hydroxy-α-oxo-benzeneacetamides and pharmaceutical compositions having activity as modulators of the arachidonic acid cascade” (Warner-Lambert Company, priority 1985, dated 1990).

Target: T1, 5-lipoxygenase (isolated human leukocytes) (Homo sapiens, UniProt P09917)
T1 construct: 5-Lipoxygenase Assay Using Isolated Human Leukocytes (5LOA2); endogenous in cells; host or cells: isolated human blood leukocytes, platelets removed
T1 sequence (P09917 1-674): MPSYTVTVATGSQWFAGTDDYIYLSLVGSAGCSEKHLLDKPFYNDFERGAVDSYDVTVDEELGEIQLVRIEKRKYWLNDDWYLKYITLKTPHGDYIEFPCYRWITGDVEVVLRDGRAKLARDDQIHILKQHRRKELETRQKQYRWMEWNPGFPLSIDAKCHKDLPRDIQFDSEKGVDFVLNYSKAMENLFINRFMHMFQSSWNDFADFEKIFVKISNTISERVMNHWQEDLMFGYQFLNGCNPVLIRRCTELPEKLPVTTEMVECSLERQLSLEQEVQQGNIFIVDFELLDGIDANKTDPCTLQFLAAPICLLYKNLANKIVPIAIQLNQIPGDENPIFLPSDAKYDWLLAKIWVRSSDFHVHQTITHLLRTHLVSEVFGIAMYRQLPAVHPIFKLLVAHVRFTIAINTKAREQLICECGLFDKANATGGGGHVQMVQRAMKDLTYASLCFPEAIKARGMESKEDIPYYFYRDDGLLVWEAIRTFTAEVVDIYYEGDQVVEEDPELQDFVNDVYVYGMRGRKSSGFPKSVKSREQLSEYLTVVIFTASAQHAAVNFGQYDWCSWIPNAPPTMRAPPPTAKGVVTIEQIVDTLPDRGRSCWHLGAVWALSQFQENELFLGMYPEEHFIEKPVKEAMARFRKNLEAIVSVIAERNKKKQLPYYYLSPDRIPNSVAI
Experiment: 5-Lipoxygenase Assay Using Isolated Human Leukocytes (5LOA2)
Type: cell-based
Conditions: 5LOA2; 50% inhibition of 5-HETE formation; E -number means X 10^-no.; read-out: Concentration giving 50.00 % Inhibition (5LOA2)
Method: 5-Lipoxygenase Assay Using Isolated Human Leukocytes (5LOA2)
The formation of 5-HETE in human leukocytes is considered a measure of 5-lipoxygenase activity. The protocol is described in the following.
Fresh heparinized or EDTA treated human blood is mixed with 6% dextran-3% dextrose in isotonic saline in the ratio 0.25 ml dextran solution per 1.0 ml blood. After mixing the blood is allowed to sit at room temperature for about 90 minutes while the RBC's settle. During this period, the plasma is removed with a plastic pipette to nalgens tubes.
The plasma is centrifuged at 800 rpm ([…]) on the Beckman Td-b refrigerated centrifuge to remove the platelets (which remain in the supernatant). The pellet, consisting of leukocytes and erythrocytes, is treated with 10 ml 0.87% ammonium chloride at room temperature for four minutes, lysing the red cells. At the end of four minutes the cells are diluted with a 2×volume of phosphate buffered saline, pH 7.4, and centrifuged for ten minutes. The cells are washed three times with the phosphate buffered saline. Any of the pelleted cell matter which is not easily resuspended is discarded during the washings --the material contains platelets (12-lipoxygenase activity).
After washing, the cells are resuspended in phosphate buffered saline containing 1.0 mM calcium and 0.5 mM magnesium. After counting the cells are diluted to 1.5-2.0×10^7 leukocytes per milliliter.
To each polypropylene reaction tube is added 0.48 ml leukocytes in Ca-Mg phosphate buffered saline, pH 7.4; 1-5 μl test compound dissolved in DMSO and buffer; or DMSO for control tubes.
The tubes preincubate at 37° C. for five minutes. […]
A portion of the ethanol solution is injected into the HPLC system for 5-HETE quantitation.
The HPLC system consists of Hewlett-Packard 1040A UV spectrophotometry system with an HP85 computer. […] Peaks are measured with a Hewlett Packard 3360A integrator. […] The flow is monitored at 235 nm for 5-HETE quatitation. […]

IC50: 1690 nM
SMILES: COc1ccc(CCc2ccc(NC(=O)c3ccc(C)cc3O)cc2)cc1OC [Example 46, N-[4-[2-(3,4-Dimethoxyphenyl)ethyl]phenyl]-2-hydroxy-4-methylbenzamide]
